Here are results for seven compounds from BindingDB's records for patent US20250325711 (Hoffmann-La Roche, 2025).

Chain of Cannabinoid receptor 2 (P34972 whole entry): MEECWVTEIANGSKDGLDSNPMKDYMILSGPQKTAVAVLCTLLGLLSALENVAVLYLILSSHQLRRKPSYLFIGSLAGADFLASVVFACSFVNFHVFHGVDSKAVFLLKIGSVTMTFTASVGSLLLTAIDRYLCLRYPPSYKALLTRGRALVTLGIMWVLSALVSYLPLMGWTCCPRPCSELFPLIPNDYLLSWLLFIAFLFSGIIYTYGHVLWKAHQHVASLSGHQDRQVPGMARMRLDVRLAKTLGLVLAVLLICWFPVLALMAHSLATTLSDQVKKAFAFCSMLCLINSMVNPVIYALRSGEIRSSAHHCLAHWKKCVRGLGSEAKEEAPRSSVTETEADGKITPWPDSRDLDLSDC

The target in this test is Cannabinoid receptor 2 (Homo sapiens, UniProt P34972). Put plainly: Competition Binding Assay. How it is done:
To determine the affinity of CB2R-specific ligands, we used a simple competition kinetic binding assay. This approach involves the simultaneous addition of both fluorescent ligand and competitor to the CB2R preparation. 62.5 nM 8-SiR, concentration which avoid ligand depletion in this assay volume, were added simultaneously with increasing concentrations of the unlabeled compound to CB2R cell membranes (4 μg per well) in 40 μL of assay buffer in a 384-well plate incubated at room temperature with orbital mixing. The degree of fluorescent ligand bound to the receptor was assessed at equilibrium by HTRF detection. Nonspecific binding was determined as the amount of HTRF signal detected in the presence of SR144528 (1 μM) and was subtracted from total binding, to calculate specific binding for construction of IC50 curves.
On to `CCN(CC)c1ccc2c(c1)OC(=O)C(/C=C/c1ccc(S(=O)(=O)[O-])c[n+]1CCCCCC(=O)NCCOCCN1CC(CNC(=O)C3=CC(S(=O)(=O)N4CC(C(=O)NCCCCCCC(=O)NCC5=C[C@H](c6c(OC)cc(C(C)(C)CCCCCCN=[N+]=[N-])cc6OC)[C@@H]6C[C@H]5C6(C)C)C=CC4=O)CC=C3)N=N1)C2` (some centres not stated) [US20250325711, Example 5], for which the Kd was determined as 59 nM.

In turn, `CCCCCCC(C)(C)c1cc(OC)c([C@H]2C=C(CNC(=O)CCCCCCNC(=O)c3ccc(=O)n(S(=O)(=O)c4cccc(C(=O)NCC5CN(CCOCCNc6ccc([N+](=O)[O-])c7nonc67)N=N5)c4)c3)[C@H]3C[C@@H]2C3(C)C)c(OC)c1` (some centres not stated) [US20250325711, Example 3] had a Kd of 24.2 nM.

The compound `COc1cc(C(C)(C)CCCCCCN=[N+]=[N-])cc(OC)c1[C@H]1C=C(CNC(=O)CCCCCCNC(=O)c2ccc(S(=O)(=O)N(CC#N)C(=O)CCC3CN(CCOCCNc4ccc([N+](=O)[O-])c5nonc45)N=N3)cc2)[C@H]2C[C@@H]1C2(C)C` (some centres not stated) [US20250325711, Example 11] had a Kd of 152 nM. With `COc1cc(C(C)(C)CCCCCCN=[N+]=[N-])cc(OC)c1[C@H]1C=C(CNC(=O)CCCCCCNC(=O)c2ccc(=O)n(S(=O)(=O)c3cccc(C(=O)NCC4CN(CCOCCOCCOCCOCCNc5ccc([N+](=O)[O-])c6nonc56)N=N4)c3)c2)[C@H]2C[C@@H]1C2(C)C` (some centres not stated) [US20250325711, Example 4] the figure was 4.5 nM; with `COc1cc(C(C)(C)CCCCCCN=[N+]=[N-])cc(OC)c1[C@H]1C=C(CNC(=O)CCCCCCNC(=O)c2ccc(=O)n(S(=O)(=O)c3cccc(C(=O)NCC4CN(CCOCCNc5ccc([N+](=O)[O-])c6nonc56)N=N4)c3)c2)[C@H]2C[C@@H]1C2(C)C` (some centres not stated) [US20250325711, Example 2], 22.9 nM. With `COc1cc(C(C)(C)CCCCCCN=[N+]=[N-])cc(OC)c1[C@H]1C=C(CNC(=O)CCCCNC(=O)c2ccc(=O)n(S(=O)(=O)c3cccc(C(=O)NCCC4CN(CCOCCNc5ccc([N+](=O)[O-])c6nonc56)N=N4)c3)c2)[C@H]2C[C@@H]1C2(C)C` (some centres not stated) [US20250325711, Example 1] the figure was 9.1 nM; with `COc1cc(C(C)(C)CCCCCCN=[N+]=[N-])cc(OC)c1[C@H]1C=C(CNC(=O)CCCCCCCCNC(=O)c2ccc(=O)n(S(=O)(=O)c3cccc(C(=O)NCC4CN(CCOCCNc5ccc([N+](=O)[O-])c6nonc56)N=N4)c3)c2)[C@H]2C[C@@H]1C2(C)C` (some centres not stated) [US20250325711, Example 7], 8.9 nM.
